Key:
[1] = Unbound fraction during UGT-mediated glucuronidation in human intestinal microsomes
[2] = Intrinsic clearance in human intestinal microsomes assessed UGT-mediated glucuronidation clearance
[3] = Unbound intrinsic clearance in human intestinal microsomes assessed UGT-mediated glucuronidation clearance
[4] = target: T1, UDP-glucuronosyltransferase 1A9 (Homo sapiens, UniProt O60656); assay: Activity of human UGT1A9 expressed in insect cells assessed as reduction in compound level after 30 mins; type: ADME; conditions: 0.5 h
T1 sequence (O60656 whole entry): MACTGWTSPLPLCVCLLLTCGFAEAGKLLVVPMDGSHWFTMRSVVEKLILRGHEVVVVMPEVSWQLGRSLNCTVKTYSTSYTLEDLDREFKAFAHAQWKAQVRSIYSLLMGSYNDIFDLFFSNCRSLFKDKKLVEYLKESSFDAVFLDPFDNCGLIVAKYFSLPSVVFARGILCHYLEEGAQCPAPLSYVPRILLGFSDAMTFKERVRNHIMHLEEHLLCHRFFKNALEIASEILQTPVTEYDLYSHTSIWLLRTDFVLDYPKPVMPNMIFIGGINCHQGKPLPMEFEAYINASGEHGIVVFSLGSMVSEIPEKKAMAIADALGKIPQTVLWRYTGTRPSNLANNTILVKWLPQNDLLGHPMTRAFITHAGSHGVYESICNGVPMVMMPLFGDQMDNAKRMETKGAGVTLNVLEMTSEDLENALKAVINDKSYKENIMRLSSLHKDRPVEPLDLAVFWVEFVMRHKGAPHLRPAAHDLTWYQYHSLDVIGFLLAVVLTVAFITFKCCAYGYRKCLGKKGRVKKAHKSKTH

[5] = Apparent permeability by PAMPA method
clinical [6] = conditions: human, in vivo
in vitro = conditions: human, blood and plasma
Description: Ratio of drug level in blood to plasma in human

clinical [7] = conditions: human, in vivo; remark: listed apart in the source
[8] = Intrinsic clearance in human intestinal microsomes assessed CYP450-mediated glucuronidation clearance
[9] = Unbound intrinsic clearance in human intestinal microsomes assessed CYP450-mediated glucuronidation clearance
[10] = target: T2, UDP-glucuronosyltransferase 2B7 (Homo sapiens, UniProt P16662); assay: Activity of human UGT2B7 expressed in insect cells assessed as reduction in compound level after 30 mins; type: ADME; conditions: 0.5 h
T2 sequence (P16662 whole entry): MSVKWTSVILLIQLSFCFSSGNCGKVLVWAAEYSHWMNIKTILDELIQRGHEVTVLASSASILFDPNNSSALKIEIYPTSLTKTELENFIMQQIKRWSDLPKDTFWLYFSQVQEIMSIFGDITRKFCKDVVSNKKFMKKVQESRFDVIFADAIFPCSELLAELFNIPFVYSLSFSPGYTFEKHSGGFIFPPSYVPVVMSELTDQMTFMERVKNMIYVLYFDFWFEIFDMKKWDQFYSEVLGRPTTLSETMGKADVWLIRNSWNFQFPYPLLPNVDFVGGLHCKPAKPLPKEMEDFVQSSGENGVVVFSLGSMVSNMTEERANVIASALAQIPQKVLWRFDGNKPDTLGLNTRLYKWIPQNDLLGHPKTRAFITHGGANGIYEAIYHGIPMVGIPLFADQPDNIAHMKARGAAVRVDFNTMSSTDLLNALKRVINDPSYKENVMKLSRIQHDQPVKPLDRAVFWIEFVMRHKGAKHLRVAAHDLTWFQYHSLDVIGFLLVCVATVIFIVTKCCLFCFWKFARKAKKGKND

[11] = Bioavailability in human; type: ADME, organism-based; conditions: in vivo
[12] = Unbound fraction during CYP4500-mediated metabolism in human intestinal microsomes
[13] = target: T3, UDP-glucuronosyltransferase 1A8 (Homo sapiens, UniProt Q9HAW9); assay: Activity of human UGT1A8 expressed in insect cells assessed as reduction in compound level after 30 mins; type: ADME; conditions: 0.5 h
T3 sequence (Q9HAW9 whole entry): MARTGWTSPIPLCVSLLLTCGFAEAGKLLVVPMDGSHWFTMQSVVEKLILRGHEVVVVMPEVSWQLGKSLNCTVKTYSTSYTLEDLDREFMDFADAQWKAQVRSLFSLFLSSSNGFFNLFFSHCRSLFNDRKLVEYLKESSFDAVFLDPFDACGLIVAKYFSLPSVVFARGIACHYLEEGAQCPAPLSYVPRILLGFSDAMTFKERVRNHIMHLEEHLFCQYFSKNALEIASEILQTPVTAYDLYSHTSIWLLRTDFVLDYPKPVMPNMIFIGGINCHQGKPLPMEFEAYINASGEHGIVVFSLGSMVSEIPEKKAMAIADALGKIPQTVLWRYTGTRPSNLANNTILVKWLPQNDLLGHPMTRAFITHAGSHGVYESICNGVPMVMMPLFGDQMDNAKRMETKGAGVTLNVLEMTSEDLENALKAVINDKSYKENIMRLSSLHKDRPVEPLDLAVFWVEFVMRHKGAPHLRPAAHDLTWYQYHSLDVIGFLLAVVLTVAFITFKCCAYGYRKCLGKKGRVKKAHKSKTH

[14] = target: T4, UDP-glucuronosyltransferase 1A10 (Homo sapiens, UniProt Q9HAW8); assay: Activity of human UGT1A10 expressed in insect cells assessed as reduction in compound level after 30 mins; type: ADME; conditions: 0.5 h
T4 sequence (Q9HAW8 whole entry): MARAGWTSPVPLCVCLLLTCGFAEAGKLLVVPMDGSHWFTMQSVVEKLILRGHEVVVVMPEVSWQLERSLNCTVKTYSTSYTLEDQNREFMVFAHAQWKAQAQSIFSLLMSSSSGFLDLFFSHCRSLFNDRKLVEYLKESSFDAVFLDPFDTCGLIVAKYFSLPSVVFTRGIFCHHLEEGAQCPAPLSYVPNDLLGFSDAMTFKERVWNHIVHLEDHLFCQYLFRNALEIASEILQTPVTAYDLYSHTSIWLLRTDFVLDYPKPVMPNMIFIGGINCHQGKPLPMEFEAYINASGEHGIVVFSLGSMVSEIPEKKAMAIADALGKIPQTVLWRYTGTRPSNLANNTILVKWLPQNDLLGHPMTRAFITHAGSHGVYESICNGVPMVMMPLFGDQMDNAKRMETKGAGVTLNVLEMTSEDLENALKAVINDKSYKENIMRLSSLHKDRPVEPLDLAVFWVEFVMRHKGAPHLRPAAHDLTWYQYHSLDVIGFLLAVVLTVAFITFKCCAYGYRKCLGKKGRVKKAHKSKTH

[15] = target: T5, UDP-glucuronosyltransferase 1A3 (Homo sapiens, UniProt P35503); assay: Activity of human UGT1A3 expressed in insect cells assessed as reduction in compound level after 30 mins; type: ADME; conditions: 0.5 h
T5 sequence (P35503 whole entry): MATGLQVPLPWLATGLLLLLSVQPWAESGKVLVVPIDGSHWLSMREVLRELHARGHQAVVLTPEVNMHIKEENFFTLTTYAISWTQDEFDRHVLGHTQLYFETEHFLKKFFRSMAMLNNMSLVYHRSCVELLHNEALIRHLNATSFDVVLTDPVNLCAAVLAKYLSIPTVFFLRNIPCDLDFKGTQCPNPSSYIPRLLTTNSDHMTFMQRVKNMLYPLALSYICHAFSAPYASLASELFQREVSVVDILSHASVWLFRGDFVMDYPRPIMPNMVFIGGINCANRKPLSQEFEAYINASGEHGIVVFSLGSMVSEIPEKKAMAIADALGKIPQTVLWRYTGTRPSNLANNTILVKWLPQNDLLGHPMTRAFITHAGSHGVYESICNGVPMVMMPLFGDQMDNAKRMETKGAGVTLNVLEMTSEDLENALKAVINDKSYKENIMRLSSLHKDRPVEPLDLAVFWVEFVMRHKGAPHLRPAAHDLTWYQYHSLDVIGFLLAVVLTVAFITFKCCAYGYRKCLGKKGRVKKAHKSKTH

[16] = target: T6, UDP-glucuronosyltransferase 1A1 (Homo sapiens, UniProt P22309); assay: Activity of human UGT1A1 expressed in insect cells assessed as reduction in compound level after 30 mins; type: ADME; conditions: 0.5 h
T6 sequence (P22309 whole entry): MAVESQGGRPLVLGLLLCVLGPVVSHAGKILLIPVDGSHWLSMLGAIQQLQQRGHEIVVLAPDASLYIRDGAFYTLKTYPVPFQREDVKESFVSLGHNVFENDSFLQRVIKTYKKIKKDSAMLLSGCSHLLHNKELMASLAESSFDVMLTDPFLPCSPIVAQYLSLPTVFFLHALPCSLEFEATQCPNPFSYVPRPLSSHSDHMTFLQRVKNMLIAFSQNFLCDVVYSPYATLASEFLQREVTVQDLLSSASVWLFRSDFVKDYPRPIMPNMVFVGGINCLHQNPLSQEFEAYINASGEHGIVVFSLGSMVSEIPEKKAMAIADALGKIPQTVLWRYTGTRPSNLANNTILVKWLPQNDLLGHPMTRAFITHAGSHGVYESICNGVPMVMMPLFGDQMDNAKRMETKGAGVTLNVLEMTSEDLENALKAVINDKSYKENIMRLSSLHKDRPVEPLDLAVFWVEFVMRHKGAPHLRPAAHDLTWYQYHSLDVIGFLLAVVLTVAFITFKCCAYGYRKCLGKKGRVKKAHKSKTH

[17] = Drug absorption in po dosed human; type: ADME, organism-based; conditions: in vivo, read-out: Drug absorption
clinical [18] = conditions: human, in vivo, po
[19] = Oral bioavailability in human; type: ADME, organism-based; conditions: in vivo
[20] = target: T7, UDP-glucuronosyltransferase 1A7 (Homo sapiens, UniProt Q9HAW7); assay: Activity of human UGT1A7 expressed in insect cells assessed as reduction in compound level after 30 mins; type: ADME; conditions: 0.5 h
T7 sequence (Q9HAW7 whole entry): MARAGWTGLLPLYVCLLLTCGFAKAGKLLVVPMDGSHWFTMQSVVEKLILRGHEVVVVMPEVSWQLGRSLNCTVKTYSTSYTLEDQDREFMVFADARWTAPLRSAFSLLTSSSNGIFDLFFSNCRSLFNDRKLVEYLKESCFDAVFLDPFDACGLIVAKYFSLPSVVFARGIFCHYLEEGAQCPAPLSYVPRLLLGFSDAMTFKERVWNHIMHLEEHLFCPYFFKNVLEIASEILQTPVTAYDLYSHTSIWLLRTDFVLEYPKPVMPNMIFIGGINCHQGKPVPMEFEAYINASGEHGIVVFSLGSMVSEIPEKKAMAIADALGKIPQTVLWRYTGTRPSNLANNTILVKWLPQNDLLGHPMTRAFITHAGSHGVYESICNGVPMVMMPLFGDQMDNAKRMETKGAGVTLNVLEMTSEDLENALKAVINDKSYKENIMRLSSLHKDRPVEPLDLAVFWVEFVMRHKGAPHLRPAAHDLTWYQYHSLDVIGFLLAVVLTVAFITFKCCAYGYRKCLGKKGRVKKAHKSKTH

[21] = target: T8, UDP-glucuronosyltransferase 2B15 (Homo sapiens, UniProt P54855); assay: Activity of human UGT2B15 expressed in insect cells assessed as reduction in compound level after 30 mins; type: ADME; conditions: 0.5 h
T8 sequence (P54855 whole entry): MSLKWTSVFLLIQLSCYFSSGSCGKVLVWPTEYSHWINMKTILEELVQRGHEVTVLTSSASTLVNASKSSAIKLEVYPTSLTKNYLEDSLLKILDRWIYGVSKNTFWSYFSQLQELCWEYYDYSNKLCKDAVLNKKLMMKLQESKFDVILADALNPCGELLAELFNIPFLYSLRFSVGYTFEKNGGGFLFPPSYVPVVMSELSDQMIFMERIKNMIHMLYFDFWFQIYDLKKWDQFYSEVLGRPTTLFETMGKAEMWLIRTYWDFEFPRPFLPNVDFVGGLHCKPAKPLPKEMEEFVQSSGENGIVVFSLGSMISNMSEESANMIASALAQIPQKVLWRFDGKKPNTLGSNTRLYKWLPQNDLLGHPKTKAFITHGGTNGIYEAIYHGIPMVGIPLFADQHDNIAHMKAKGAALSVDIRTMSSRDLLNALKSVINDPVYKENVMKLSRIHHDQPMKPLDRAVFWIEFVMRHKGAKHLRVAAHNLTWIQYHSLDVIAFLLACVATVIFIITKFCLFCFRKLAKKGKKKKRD

CL free [3]	Papp [5]	CL free [9]	Drug metabolism [10]	fraction unbound ([1]; intestinal microsomes)	Drug metabolism [13]	Drug metabolism [14]	Drug metabolism [16]	SMILES	fraction unbound ([1]; microsomes)	microsomal CLint ([2]; intestinal microsomes)	Drug metabolism [4]	clearance (clinical [6])	blood plasma ratio (in vitro)	other results
17.5 µL/min/mg	< 0.1 ×10⁻⁶ cm/s	metabolite_not_detected	metabolite_detected					Cc1ccc(C)c(OCCCC(C)(C)C(=O)O)c1 [GEMFIBROZIL]	0.97				0.58	microsomal CLint ([2]; microsomes): 17 µL/min/mg; CL ([8]; microsomes): metabolite_not_detected; bioavailability [11]: 100%
	20 ×10⁻⁶ cm/s				metabolite_detected	metabolite_detected	metabolite_detected	Cc1c(-c2ccc(O)cc2)n(Cc2ccc(OCCN3CCCCCC3)cc2)c2ccc(O)cc12 [BAZEDOXIFENE]						bioavailability [19]: 6.2%
176 µL/min/mg	14 ×10⁻⁶ cm/s		metabolite_detected	0.88			metabolite_detected	Cc1c(Cl)cccc1Nc1ccccc1C(=O)O [TOLFENAMIC ACID]		155 µL/min/mg	metabolite_detected	2.2 mL/min/kg	0.66	Drug metabolism [20]: metabolite_detected; Drug metabolism [21]: metabolite_detected

Continued, compound first:

SMILES	CL free [3]	Papp [5]	CL free [9]	Drug metabolism [10]	fraction unbound ([1]; intestinal microsomes)	Drug metabolism [13]	Drug metabolism [14]	Drug metabolism [16]	fraction unbound ([1]; microsomes)	microsomal CLint ([2]; intestinal microsomes)	Drug metabolism [4]	clearance (clinical [6])	blood plasma ratio (in vitro)	other results
COc1ccc2c(c1)c(CC(=O)O)c(C)n2C(=O)c1ccc(Cl)cc1 [INDOMETHACIN]	5.2 µL/min/mg	22 ×10⁻⁶ cm/s							0.8	4.2 µL/min/mg	metabolite_detected	1.4 mL/min/kg	0.55	CL renal (clinical [7]): 0.21 mL/min/kg
O=C(c1ccc(OCCN2CCCCC2)cc1)c1c(-c2ccc(O)cc2)sc2cc(O)ccc12 [RALOXIFENE]	2224 µL/min/mg	3 ×10⁻⁶ cm/s	20.7 µL/min/mg		0.98	metabolite_detected	metabolite_detected							CL ([2]; microsomes): 2180 µL/min/mg; fraction unbound [12]: 0.43; microsomal CLint ([8]; intestinal microsomes): 8.9 µL/min/mg
O=c1c(O)c(-c2ccc(O)c(O)c2)oc2cc(O)cc(O)c12 [QUERCETIN]	5133 µL/min/mg	< 1.5 ×10⁻⁶ cm/s			0.9			metabolite_detected		4620 µL/min/mg			1	Drug metabolism [15]: metabolite_detected; Fa [17]: 65%; CL/F (clinical [18]): 8330 mL/min/kg

From ChEMBL document CHEMBL3525973, “Quantitative prediction of human intestinal glucuronidation effects on intestinal availability of UDP-glucuronosyltransferase substrates using in vitro data” (Drug Metab Dispos, 2012)
